Reference: patent US9493466B2, “Treatment of cancer with TOR kinase inhibitors” (Signal Pharmaceuticals, LLC, priority 2011, dated 2016)
Where “and” joins values, the source holds several entries; their conditions need not be identical. Equal values may be shown once.

Tests used:
Test in all cases: Cell viability assay for NSCLC lines
Type in all cases: cell-based, human
[1] = system: NCI-H1703; conditions: NCI-H1703, 3 days
Method: (§1) Cell Viability Assay for NSCLC Lines. Cell viability was assessed using the Cell Titer-Glo Luminescent Cell Viability from Promega. The assay is a homogenous method of determining the number of viable cells in culture based on quantitation of the adenosine triphosphate (ATP) present, an indicator of metabolically active cells. The homogenous assay procedure involves adding the single reagent (CellTiter-Glo Reagent) directly to cells cultured in serum-supplemented medium. Cells were plated into a 96-well flat bottom plate (Costar Catalog Number 33595) at densities that were previously optimized for each cell line. The cells were incubated overnight in 5% CO2 at 37° C. The following day, compound dilutions were prepared and all concentrations were assayed in triplicate. The cells were incubated with Compound 1 (0.03 μM, 0.1 μM, 0.3 μM, 1 μM, 3 μM, 10 μM and 30 μM for NSCLC cells) in 5% CO2 at 37° C. for 3 days. After a 3-day incubation period, 100 μL of CellTiter-Glo reagent was added to each well for 2 minutes with shaking and further incubated for 10 minutes (no shaking) at room temperature to stabilize the signal. The luminescence was measured on the VICTOR X2 multilabel plate reader. The percent growth inhibition was calculated using the DMSO control in the same plate (no compound) response as 100% cell growth. The average values from triplicates were plotted to obtain IC50 values using software XLfit from IDBS. The formula used for determining IC50 in XLfit was model number 205, which utilizes a 4 Parameter Logistic Model or Sigmoidal Dose-Response Model to calculate the IC50 values. All IC50 values are reported as an average from either two independent experiments or a single experiment.

[2] = system: NCI-H2122; conditions: NCI-H2122, 3 days
Method: as §1

[3] = system: NCI-H226; conditions: NCI-H226, 3 days
Method: as §1

[4] = system: HOP92; conditions: HOP92, 3 days
Method: as §1

[5] = system: NCI-H838; conditions: NCI-H838, 3 days
Method: as §1

[6] = system: NCI-H2009; conditions: NCI-H2009, 3 days
Method: as §1

[7] = system: NCI-H520; conditions: NCI-H520, 3 days
Method: as §1

[8] = system: NCI-H1944; conditions: NCI-H1944, 3 days
Method: as §1

[9] = system: NCI-H1693; conditions: NCI-H1693, 3 days
Method: as §1

[10] = system: NCI-H1568; conditions: NCI-H1568, 3 days
Method: as §1

[11] = system: Calu-6; conditions: Calu-6, 3 days
Method: as §1

[12] = system: NCI-H2030; conditions: NCI-H2030, 3 days
Method: as §1

[13] = system: NCI-H2228; conditions: NCI-H2228, 3 days
Method: as §1

[14] = system: SW1573; conditions: SW1573, 3 days
Method: as §1

[15] = system: NCI-H1975; conditions: NCI-H1975, 3 days
Method: as §1

[16] = system: NCI-H2291; conditions: NCI-H2291, 3 days
Method: as §1

[17] = system: HOP62; conditions: HOP62, 3 days
Method: as §1

[18] = system: NCI-H1299; conditions: NCI-H1299, 3 days
Method: as §1

[19] = system: NCI-H23; conditions: NCI-H23, 3 days
Method: as §1

[20] = system: NCI-H650; conditions: NCI-H650, 3 days
Method: as §1

[21] = system: Calu-1; conditions: Calu-1, 3 days
Method: as §1

[22] = system: NCI-H1437; conditions: NCI-H1437, 3 days
Method: as §1

[23] = system: NCI-H1755; conditions: NCI-H1755, 3 days
Method: as §1

[24] = system: NCI-H441; conditions: NCI-H441, 3 days
Method: as §1

[25] = system: NCI-H2110; conditions: NCI-H2110, 3 days
Method: as §1

[26] = system: NCI-H549; conditions: NCI-H549, 3 days
Method: as §1

[27] = system: NCI-H2444; conditions: NCI-H2444, 3 days
Method: as §1

[28] = system: NCI-H358; conditions: NCI-H358, 3 days
Method: as §1

CO[C@H]1CC[C@H](N2C(=O)CNc3ncc(-c4ccc(C(C)(C)O)nc4)nc32)CC1 [Compound 1, 7-(6-(2-hydroxypropan-2-yl)pyridin-3-yl)-1-((1r,4r)-4-methoxycyclohexyl)-3,4-dihydropyrazino-[2,3-b]pyrazin-2(1H)-one]
IC50 [1]: 920 nM | IC50 [2]: 900 nM | IC50 [3]: 1750 nM | IC50 [4]: > 30000 nM | IC50 [5]: 390 nM | IC50 [6]: 26000 nM | IC50 [7]: 499 nM and 500 nM | IC50 [8]: 550 nM | IC50 [9]: 1580 nM | IC50 [10]: 226 nM | IC50 [11]: 4520 nM | IC50 [12]: 2230 nM | IC50 [13]: 264 nM | IC50 [14]: 7210 nM | IC50 [15]: 960 nM | IC50 [16]: > 30000 nM | IC50 [17]: 2010 nM | IC50 [18]: 1230 nM | IC50 [19]: 2210 nM | IC50 [20]: > 30000 nM | IC50 [21]: 4740 nM | IC50 [22]: 975 nM | IC50 [23]: 3030 nM | IC50 [24]: > 30000 nM | IC50 [25]: 456 nM | IC50 [26]: 770 nM | IC50 [27]: 778 nM | IC50 [28]: 1420 nM
